Data on five compounds can be found in paper PMC7418559, “Synthesis and SAR of Tetracyclic Inhibitors of Protein Kinase CK2 Derived from Furocarbazole W16” (Chemmedchem, 2020).

Like-named read-outs stand apart in the source and are kept apart here.

The target of one test is T1, CK2α subunit (Homo sapiens, UniProt P68400).
T1 construct: made in house; host or cells: E. coli BL21(DE3)
The experiment in a line: Capillary electrophoresis (CE) assay, enzyme inhibition of the CK2α subunit. Type of test: biochemical. The conditions noted are these: for Inhibition (%) of CK2α: c=10 μM, CE assay, mean±SD of three experiments, n.s.=not significant. From the text: (§1) In this assay, the decapeptide […], a known class I substrate suitable for assaying the kinase activity of both the CK2 holoenzyme and the catalytically active CK2 subunits,50, 58 was reacted with ATP in the presence of enzyme, which transfers a phosphate group to Ser7 of the decapeptide. Due to the additional negative charge of the phosphate group, the decapeptide and the phosphorylated decapeptide can be separated by CE. […] The data on the inhibition of the kinase activities of CK2α2β2, CK2α subunit and mutated CK2α’ ^C336S subunit are summarized in Table 1.
(§2) Enzymatic activities with or without inhibitors were determined for the holoenzyme (CK2α2β2), the CK2α subunit, and the mutated CK2α′ ^C336S subunit by a capillary electrophoresis assay as described before.59 For this purpose, CK2α as well as (CK2α2β2) holoenzyme were purified after recombinant expression in E. coli BL21(DE3) and purified according the protocol of Grankowski et al.62 The mutated CK2α′ ^C336S subunit was purified by Ni‐NTA affinity chromatography using an N‐terminally attached His6 tag. Successful purification was controlled by SDS‐PAGE. Enzymatic activity was determined in the presence of 60 μM ATP and 114 μM of the substrate peptide […]. For both CK2α subunits an assay buffer containing 100 mM NaCl instead of 60 mM NaCl as for the holoenzyme, and 20 mM MgCl2 instead of 10 mM MgCl2 was applied. For the holoenzyme, 1 μg was added, whereas for CK2α and the mutated CK2α′ ^C336S subunit 0.25 μg was added each. For each compound inhibition was determined three times independently at an initial concentration of 10 μM and the mean value and the standard deviation (SD) were calculated.

In a further test the target is T2, holoenzyme CK2α2β2 (Homo sapiens, UniProt P68400).
T2 construct: made in house; host or cells: E. coli BL21(DE3)
Nature of the test: Capillary electrophoresis (CE) assay, enzyme inhibition of the holoenzyme. Type of test: biochemical. The following applies: for inhibition at 10 µM: read-out: Inhibition (%) of CK2α2β2. As for the experimental part:
In this assay, the decapeptide […], a known class I substrate suitable for assaying the kinase activity of both the CK2 holoenzyme and the catalytically active CK2 subunits,50, 58 was reacted with ATP in the presence of enzyme, which transfers a phosphate group to Ser7 of the decapeptide. Due to the additional negative charge of the phosphate group, the decapeptide and the phosphorylated decapeptide can be separated by CE.
Enzymatic activities with or without inhibitors were determined for the holoenzyme (CK2α2β2), the CK2α subunit, and the mutated CK2α′ ^C336S subunit by a capillary electrophoresis assay as described before.59 For this purpose, CK2α as well as (CK2α2β2) holoenzyme were purified after recombinant expression in E. coli BL21(DE3) and purified according the protocol of Grankowski et al.62 The mutated CK2α′ ^C336S subunit was purified by Ni‐NTA affinity chromatography using an N‐terminally attached His6 tag. […] For both CK2α subunits an assay buffer containing 100 mM NaCl instead of 60 mM NaCl as for the holoenzyme, and 20 mM MgCl2 instead of 10 mM MgCl2 was applied. For the holoenzyme, 1 μg was added, whereas for CK2α and the mutated CK2α′ ^C336S subunit 0.25 μg was added each. For each compound inhibition was determined three times independently at an initial concentration of 10 μM and the mean value and the standard deviation (SD) were calculated.

The next test concerns CK2α/CK2β interaction. More on the design: method as in PMID 18553057. The following applies: read-out: IC50, inhibition of CK2α/CK2β interaction (PPII); cited from earlier work.
A further test deals with monomeric CK2α. Also noted: method as in PMID 18553057. The following applies: read-out: IC50, inhibition of the catalytic activity of monomeric CK2α; cited from earlier work.
Test [1] has as its target T3, mutated CK2α’ ^C336S subunit (Homo sapiens, UniProt P19784, C336S).
T3 construct: His6 (N); made in house
T3 sequence (P19784 1-350 C336S): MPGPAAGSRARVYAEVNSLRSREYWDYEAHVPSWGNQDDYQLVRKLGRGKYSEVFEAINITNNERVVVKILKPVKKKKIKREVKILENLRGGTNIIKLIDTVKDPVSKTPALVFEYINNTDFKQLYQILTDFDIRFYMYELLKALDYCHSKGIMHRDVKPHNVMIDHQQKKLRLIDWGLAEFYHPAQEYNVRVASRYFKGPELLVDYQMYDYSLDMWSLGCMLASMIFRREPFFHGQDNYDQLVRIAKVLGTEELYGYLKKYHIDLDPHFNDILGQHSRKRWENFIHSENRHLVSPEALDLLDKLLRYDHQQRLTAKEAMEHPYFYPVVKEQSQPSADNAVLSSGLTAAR
The experiment in a line: Capillary electrophoresis (CE) assay, enzyme inhibition of the mutated CK2α′ C336S subunit. The following applies: c=10 μM, CE assay, mean±SD of three experiments, n.s.=not significant; for inhibition at 10 µM: read-out: Inhibition (%) of CK2α’ ^C336S. It is filed as biochemical.
From the text: as §1, §2

In test [2] the target is T4, CK2α/CK2β interaction (CK2α^1−335 / fluorescently labeled CK2β^1−193) (Homo sapiens, UniProt P68400).
T4 sequence (P68400 1-335): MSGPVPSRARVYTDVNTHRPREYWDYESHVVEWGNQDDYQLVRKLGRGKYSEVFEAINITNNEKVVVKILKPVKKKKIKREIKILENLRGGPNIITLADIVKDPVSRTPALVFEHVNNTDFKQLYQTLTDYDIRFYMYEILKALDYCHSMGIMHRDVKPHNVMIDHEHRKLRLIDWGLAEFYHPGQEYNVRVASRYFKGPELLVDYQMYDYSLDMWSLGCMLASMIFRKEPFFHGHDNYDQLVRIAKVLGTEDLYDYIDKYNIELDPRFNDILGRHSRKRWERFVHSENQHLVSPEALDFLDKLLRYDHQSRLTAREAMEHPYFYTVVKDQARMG
Experimental: The inhibition of the interaction between the CK2α and the CK2β subunit was determined in a microscale thermophoresis (MST) assay.
To quantify the protein‐protein interaction in the presence of potential inhibitors, the investigated compounds were first dissolved in DMSO (2‐10 mM) and then 50‐fold diluted in ITC buffer (25 mM Tris‐HCl, 500 mM NaCl, pH 8.5) containing 0.1 % (v/v) Tween 20 to concentrations of either 40, 100 or 200 μM in 2 % (v/v) DMSO, i. e. twice the final concentrations: 20, 50 and 100 μM, respectively, in 1 % (v/v) DMSO, 0.05 % (v/v) Tween 20. […] MST traces were recorded at room temperature using a Nanotemper Monolith™ NT.115 Series Instrument with Monolith™ NT.115 standard treated capillaries and normalized to initial fluorescence (MO.Affinity Analysis, Nanotemper). […] Next, the statistical significance of the shift from K D to K D’ was determined for each compound by means of an unpaired Student's t test (Table S4). […] Data was analyzed and statistically evaluated with the program GraphPad Prism v.5.04 for Windows (GraphPad Software, San Diego, CA, USA).
a Shown are mean  SEM values of KD and KD’ for n separate experiments.
significant (n. s.), P > 0.05; *, P ≤ 0.05; **, P ≤ 0.01; ***, P ≤ 0.001; ****, P ≤ 0.0001. prec.

The subject of a further test is CK2. More on the design: method as in PMID 29759799. The conditions noted are these: cited from earlier work.
[3] abbreviates: c=10 μM, CE assay, mean±SD of three experiments, n.s.=not significant.

T2 sequence (P68400 whole entry): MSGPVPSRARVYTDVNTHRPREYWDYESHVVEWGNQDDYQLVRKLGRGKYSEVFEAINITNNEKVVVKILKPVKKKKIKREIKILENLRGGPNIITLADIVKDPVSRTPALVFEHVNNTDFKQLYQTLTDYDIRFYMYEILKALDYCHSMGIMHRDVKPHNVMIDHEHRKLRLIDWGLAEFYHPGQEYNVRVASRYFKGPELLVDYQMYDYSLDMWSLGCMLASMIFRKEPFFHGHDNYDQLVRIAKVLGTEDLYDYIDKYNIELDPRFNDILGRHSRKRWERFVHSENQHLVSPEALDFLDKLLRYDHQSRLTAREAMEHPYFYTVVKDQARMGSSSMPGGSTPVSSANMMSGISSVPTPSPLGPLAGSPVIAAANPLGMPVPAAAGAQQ
T1 sequence (P68400 whole entry): as above

For the compound `COc1cc([C@H]2c3c([nH]c4ccccc34)[C@@H](C(=O)N3C(=O)OC[C@@H]3Cc3ccccc3)[C@H]3C(=O)OC(=O)[C@@H]23)cc(OC)c1OC` [(+)‐3 a, (3aR,4S,10S,10aS)‐4‐{[(S)‐4‐Benzyl‐2‐oxo‐1,3‐oxazolidin‐3‐yl]carbonyl}‐10‐(3,4,5‐trimethoxyphenyl)‐4,5,10,10a‐tetrahydrofuro[3,4‐b]carbazole‐1,3(3aH)‐dione], the results for the inhibition at 10 µM (on CK2α subunit (read-out: Inhibition (%) of CK2α); on holoenzyme CK2α2β2; in test [1]) were 76 ± 4%, 84 ± 5% and 85 ± 13%, respectively. The results for the IC50 in the test with CK2α/CK2β interaction and with monomeric CK2α were […] and 20 µM, respectively.
For `COc1cc([C@@H]2c3c([nH]c4ccccc34)[C@H](C(=O)N3C(=O)OC[C@@H]3Cc3ccccc3)[C@@H]3C(=O)NC(=O)[C@H]23)cc(OC)c1OC` [(−)‐9 b], the “Inhibition (%) of CK2α” value at CK2α subunit is on record as “n.s”. Further, the “Inhibition (%) of CK2α2β2” value on holoenzyme CK2α2β2 (setting [3]) is given as “n.s”. This compound also had an inhibition constant (Ki) in test [2] of 4.4 ± 0.3 µM. The “Inhibition (%) of CK2α’ ^C336S” value in test [1] is given as “n.s”.
`COc1cc([C@@H]2c3c([nH]c4ccccc34)[C@H](C(=O)N3C(=O)OC[C@H]3Cc3ccccc3)[C@@H]3C(=O)N(C)C(=O)[C@H]23)cc(OC)c1OC` [(−)‐10 a, (3aR,4R,10R,10aR)‐4‐{[(R)‐4‐Benzyl‐2‐oxo‐1,3‐oxazolidin‐3‐yl]carbonyl}‐2‐methyl‐10‐(3,4,5‐trimethoxyphenyl)‐4,5,10,10a‐tetrahydropyrrolo[3,4‐b]carbazole‐1,3(2H,3aH)‐dione]: the “Inhibition (%) of CK2α” value on CK2α subunit is recorded as “n.s”. Moreover, the inhibition at 10 µM at holoenzyme CK2α2β2 (setting [3]) worked out at 29 ± 14%; in test [1] it was 30 ± 23%. The compound also showed a Ki in test [2] of 8.5 ± 2.9 µM.
`COc1cc([C@@H]2c3c([nH]c4ccccc34)[C@H](C(=O)N3C(=O)OC[C@@H]3Cc3ccccc3)[C@@H]3C(=O)N(C)C(=O)[C@H]23)cc(OC)c1OC` [(−)‐10 b]: the “Inhibition (%) of CK2α” value at CK2α subunit was “n.s”. Moreover, the inhibition at 10 µM at holoenzyme CK2α2β2 (setting [3]) amounted to 15 ± 11%. This compound also had a Ki in test [2] of 3.7 ± 0.7 µM. Moreover, the “Inhibition (%) of CK2α’ ^C336S” value in test [1] was “n.s”.
In the case of `NCc1cc(Cl)cc(-c2cccc3[nH]ccc23)c1` [CAM187], in the test with CK2, the “Inhibition of CK2 activity” value was “did not significantly inhibit CK2 activity”.
